Measured values from patent US7964613B2 (Asahi Kasei Pharma Corporation, priority 2007, dated 2011).

Each molecule was assayed on rabbit normal intraocular pressure (assay: Intraocular pressure reducing action). Settings: Oryctolagus cuniculus, topical; 3 mM aqueous solution, 50 μl to the left eye; max IOP reduction (2, 4, 6 hours) / value immediately before administration; read-out: intraocular pressure reducing degree.
Type: in vivo, Japanese white rabbit
Procedure: A Japanese white rabbit having a body weight of about 2 kg was placed in a positioner and naturalized for one week before the experiment. An opthalmologic local anesthesant (Benoxil) was administered to both eyes, and then intraocular pressure was measured by using a tonometer (Classic 30, Solan). A 3 mM aqueous solution of a test compound was administered in a volume of 50 μl to the left eye, and the right eye was not treated (control eye). The intraocular pressure values were measured for the left and right eyes immediately before, and 2, 4 and 6 hours after the administration of the aqueous solution of the test compound, and the difference of the measured values for the left and right eyes was considered an intraocular pressure reduction value of the test medicament at each measurement time. The largest difference of the values for the left and right eyes among the measured values at the measurement times (after 2, 4 and 6 hours) was considered the maximum intraocular pressure reduction value (max ? IOP) of each test medicament. The intraocular pressure reducing degree representing the intraocular pressure reducing action of each test medicament was calculated according to the following formula. Since rabbits show significant daily variation of intraocular pressure, daily variation is added when change of intraocular pressure is measured over time, and the intraocular pressure reducing action may be overestimated. Therefore, we used this calculation method of intraocular pressure reduction value in order to minimize the influence of the variation. Intraocular pressure reducing degree(%)=(max ? IOP/Intraocular pressure value immediately before administration)×100
`CN(C)CCOCC(=O)N[C@H]1CCN(S(=O)(=O)c2cccc3cncc(Cl)c23)C1` [Example 111, (S)-3-[2-[2-(Dimethylamino)ethoxy]acetyl]amino-1-(4-chloro-5-isoquinolinesulfonyl)pyrrolidine] showed an inhibition in vivo at 3000 µM of 5 to 10%.
In the case of `O=C(CN1CCN(CCO)CC1)N[C@H]1CCN(S(=O)(=O)c2cccc3cncc(Cl)c23)C1` [Example 92, (S)-3-[2-[4-(2-Hydroxyethyl)piperazin-1-yl]acetyl]amino-1-(4-chloro-5-isoquinolinesulfonyl)pyrrolidine], the inhibition in vivo at 3000 µM is reported as 10 to 20%.
For `O=C(Cn1ccnc1)N[C@H]1CCN(S(=O)(=O)c2cccc3cncc(Cl)c23)C1` [Example 86, (S)-3-[2-(1H-Imidazol-1-yl)acetyl]amino-1-(4-chloro-5-isoquinolinesulfonyl)pyrrolidine], the inhibition in vivo at 3000 µM was 10 to 20%.
`COCC(=O)N[C@H]1CCN(S(=O)(=O)c2cccc3cncc(C)c23)C1` [Example 70, (S)-3-(2-Methoxyacetyl)amino-1-(4-methyl-5-isoquinolinesulfonyl)pyrrolidine] showed an inhibition in vivo at 3000 µM of at least 20%.
Work on `CN(C)CC(=O)N(C)[C@H]1CCN(S(=O)(=O)c2cccc3cncc(Cl)c23)C1` [Example 66-1, (S)-3-[N-(2-Dimethylamino)acetyl-N-methyl]amino-1-(4-chloro-5-isoquinolinesulfonyl)pyrrolidine] yielded an inhibition in vivo at 3000 µM of 5 to 10%.
`CN(C)CCC(=O)N[C@H]1CCN(S(=O)(=O)c2cccc3cncc(Cl)c23)C1` [Example 78, (S)-3-[3-(Dimethylamino)propionyl]amino-1-(4-chloro-5-isoquinolinesulfonyl)pyrrolidine] showed an inhibition in vivo at 3000 µM of 10 to 20%.
In the case of `O=S(=O)(c1cccc2cncc(Cl)c12)N1CC[C@H](NC2CCOC2)C1` (stereo partly drawn) [Example 59-1, (3S)-3-(3-Tetrahydrofuranyl)amino-1-(4-chloro-5-isoquinolinesulfonyl)pyrrolidine], the inhibition in vivo at 3000 µM is reported as 10 to 20%.
`O=C(Cn1cncn1)N[C@H]1CCN(S(=O)(=O)c2cccc3cncc(Cl)c23)C1` [Example 84, (S)-3-[2-(1H-1,2,4-Triazol-1-yl)acetyl]amino-1-(4-chloro-5-isoquinolinesulfonyl)pyrrolidine] was tested, and the inhibition in vivo at 3000 µM was 10 to 20%.
Molecule `NCC1CCCCN1S(=O)(=O)c1cccc2cncc(Cl)c12` (centres unmarked) [Example 61, 2-(Aminomethyl)-1-(4-chloro-5-isoquinolinesulfonyl)piperidine] has an inhibition in vivo at 3000 µM of 10 to 20%.
Molecule `CC(=O)NCCC(=O)NC1CCN(S(=O)(=O)c2cccc3cncc(Cl)c23)C1` (stereo in doubt) [Example 97, (R)-3-[(3-Acetylamino)propionyl]amino-1-(4-chloro-5-isoquinolinesulfonyl)pyrrolidine] has an inhibition in vivo at 3000 µM of 10 to 20%.
In the case of `O=C(CO)N[C@H]1CCN(S(=O)(=O)c2cccc3cncc(Cl)c23)C1` [Example 74, (S)-3-(2-Hydroxyacetyl)amino-1-(4-chloro-5-isoquinolinesulfonyl)pyrrolidine], the inhibition in vivo at 3000 µM is reported as 10 to 20%.
`CN(C)CC(=O)N[C@H]1CCN(S(=O)(=O)c2cccc3cncc(F)c23)C1` [Example 117, (S)-3-[(2-Dimethylamino)acetyl]amino-1-(4-fluoro-5-isoquinolinesulfonyl)pyrrolidine] gave an inhibition in vivo at 3000 µM of 5 to 10%.
`O=C(CNC(=O)c1ccccc1)N[C@H]1CCN(S(=O)(=O)c2cccc3cncc(Cl)c23)C1` [Example 94, (S)-3-[(2-Benzoylamino)acetyl]amino-1-(4-chloro-5-isoquinolinesulfonyl)pyrrolidine] gave an inhibition in vivo at 3000 µM of 10 to 20%.
In the case of `O=C(CCO)N[C@H]1CCN(S(=O)(=O)c2cccc3cncc(Cl)c23)C1` [Example 75, (S)-3-(3-Hydroxypropionyl)amino-1-(4-chloro-5-isoquinolinesulfonyl)pyrrolidine], the inhibition in vivo at 3000 µM is reported as 10 to 20%.
`N[C@H]1CCN(S(=O)(=O)c2cccc3cncc(-c4cnoc4)c23)C1` [Example 24-1, (S)-3-Amino-1-[4-(4-isoxazolyl)-5-isoquinolinesulfonyl]pyrrolidine] was tested, and the inhibition in vivo at 3000 µM was 5 to 10%.
Work on `NC(C(=O)N[C@H]1CCN(S(=O)(=O)c2cccc3cncc(Cl)c23)C1)c1ccccc1` (stereo partly drawn) [Example 106, (S)-3-[(2-Amino-2-phenyl)acetyl]amino-1-(4-chloro-5-isoquinolinesulfonyl)pyrrolidine] yielded an inhibition in vivo at 3000 µM of at least 20%.
`N#Cc1cncc2cccc(S(=O)(=O)N3CC[C@H](N)C3)c12` [Example 13-1, (S)-3-Amino-1-(4-cyano-5-isoquinolinesulfonyl)pyrrolidine] gave an inhibition in vivo at 3000 µM of 5 to 10%.
In the case of `COCC(=O)N(C)[C@H]1CCN(S(=O)(=O)c2cccc3cncc(F)c23)C1` [Example 116, (S)-3-[N-(2-Methoxyacetyl)-N-methyl]amino-1-(4-fluoro-5-isoquinolinesulfonyl)pyrrolidine], the inhibition in vivo at 3000 µM is reported as 10 to 20%.
Molecule `COCC(COC)OCC(=O)N[C@H]1CCN(S(=O)(=O)c2cccc3cncc(Cl)c23)C1` [Example 108, (S)-3-[2-(1,3-Dimethoxypropan-2-yloxy)acetyl]amino-1-(4-chloro-5-isoquinolinesulfonyl)pyrrolidine] has an inhibition in vivo at 3000 µM of at least 20%.
`COCCOCCOCC(=O)N[C@H]1CCN(S(=O)(=O)c2cccc3cncc(Cl)c23)C1` [Example 99, (S)-3-[2-[2-(2-Methoxyethoxy)ethoxy]acetyl]amino-1-(4-chloro-5-isoquinolinesulfonyl)pyrrolidine] gave an inhibition in vivo at 3000 µM of 10 to 20%.
With `CC(=O)N[C@H]1CCN(S(=O)(=O)c2cccc3cncc(Cl)c23)C1` [Example 49-1, (S)-3-(Acetylamino)-1-(4-chloro-5-isoquinolinesulfonyl)pyrrolidine] the inhibition in vivo at 3000 µM was 10 to 20%.
`N#CCC(=O)N[C@H]1CCN(S(=O)(=O)c2cccc3cncc(Cl)c23)C1` [Example 90, (S)-3-(2-Cyanoacetyl)amino-1-(4-chloro-5-isoquinolinesulfonyl)pyrrolidine] showed an inhibition in vivo at 3000 µM of 10 to 20%.
`O=C(CN1CCCC1=O)N[C@H]1CCN(S(=O)(=O)c2cccc3cncc(Cl)c23)C1` [Example 87, (S)-3-[2-(2-Oxopyrrolidin-1-yl)acetyl]amino-1-(4-chloro-5-isoquinolinesulfonyl)pyrrolidine] was tested, and the inhibition in vivo at 3000 µM was 10 to 20%.
For `COCC(=O)N(C)[C@H]1CCN(S(=O)(=O)c2cccc3cncc(Cl)c23)C1` [Example 67-1, (S)-3-[N-(2-Methoxyacetyl)-N-methyl]amino-1-(4-chloro-5-isoquinolinesulfonyl)pyrrolidine], the inhibition in vivo at 3000 µM was 10 to 20%.
In the case of `CN1CCN(CC(=O)N[C@H]2CCN(S(=O)(=O)c3cccc4cncc(Cl)c34)C2)CC1` [Example 89, (S)-3-[2-(4-Methylpiperazin-1-yl)acetyl]amino-1-(4-chloro-5-isoquinolinesulfonyl)pyrrolidine], the inhibition in vivo at 3000 µM is reported as 5 to 10%.
`O=C(CCn1cnnn1)N[C@H]1CCN(S(=O)(=O)c2cccc3cncc(Cl)c23)C1` [Example 82, (S)-3-[3-(1H-Tetrazol-1-yl)propionyl]amino-1-(4-chloro-5-isoquinolinesulfonyl)pyrrolidine] was tested, and the inhibition in vivo at 3000 µM was 5 to 10%.
`O=C(CCOc1ccccc1)N[C@H]1CCN(S(=O)(=O)c2cccc3cncc(Cl)c23)C1` [Example 76, (S)-3-(3-Phenoxypropionyl)amino-1-(4-chloro-5-isoquinolinesulfonyl)pyrrolidine] showed an inhibition in vivo at 3000 µM of 10 to 20%.
For `Cc1cncc2cccc(S(=O)(=O)N3CC[C@H](NC(=O)CN(C)C)C3)c12` [Example 72, (S)-3-[2-(Dimethylamino)acetyl]amino-1-(4-methyl-5-isoquinolinesulfonyl)pyrrolidine], the inhibition in vivo at 3000 µM was 10 to 20%.
With `O=C(CN1CCOC1=O)N[C@H]1CCN(S(=O)(=O)c2cccc3cncc(Cl)c23)C1` [Example 93, (S)-3-[2-(2-Oxooxazolidin-3-yl)acetyl]amino-1-(4-chloro-5-isoquinolinesulfonyl)pyrrolidine] the inhibition in vivo at 3000 µM was 10 to 20%.
Molecule `COCC(=O)N[C@H]1CCN(S(=O)(=O)c2cccc3cncc(F)c23)C1` [Example 115, (S)-3-(2-Methoxyacetyl)amino-1-(4-fluoro-5-isoquinolinesulfonyl)pyrrolidine] has an inhibition in vivo at 3000 µM of 5 to 10%.
With `CN(C)CC(=O)N[C@H]1CCN(S(=O)(=O)c2cccc3cncc(Br)c23)C1` [Example 73, (S)-3-[(2-Dimethylamino)acetyl]amino-1-(4-bromo-5-isoquinolinesulfonyl)pyrrolidine] the inhibition in vivo at 3000 µM was 10 to 20%.
`CN(C)CC(=O)N(C)[C@H]1CCN(S(=O)(=O)c2cccc3cncc(F)c23)C1` [Example 118, (S)-3-[N-(2-Dimethylamino)acetyl-N-methyl]amino-1-(4-fluoro-5-isoquinolinesulfonyl)pyrrolidine] gave an inhibition in vivo at 3000 µM of 5 to 10%.
In the case of `CSCCC(=O)N[C@H]1CCN(S(=O)(=O)c2cccc3cncc(Cl)c23)C1` [Example 79, (S)-3-[3-(Methylthio)propionyl]amino-1-(4-chloro-5-isoquinolinesulfonyl)pyrrolidine], the inhibition in vivo at 3000 µM is reported as 10 to 20%.
Molecule `COCCOCC(=O)N[C@H]1CCN(S(=O)(=O)c2cccc3cncc(Cl)c23)C1` [Example 98, (S)-3-[2-(2-Methoxyethoxy)acetyl]amino-1-(4-chloro-5-isoquinolinesulfonyl)pyrrolidine] has an inhibition in vivo at 3000 µM of at least 20%.
`COCCC(=O)N[C@H]1CCN(S(=O)(=O)c2cccc3cncc(Cl)c23)C1` [Example 77, (S)-3-(3-Methoxypropionyl)amino-1-(4-chloro-5-isoquinolinesulfonyl)pyrrolidine] gave an inhibition in vivo at 3000 µM of at least 20%.
